Values quoted from earlier work, collected in US20230338375A1, “SUBSTITUTED PYRIDAZINONES FOR USE IN THE TREATMENT OF NEUROMUSCULAR DISEASES” (Edgewise Therapeutics, Inc., priority 2020, published 2023).

System: embryos from zebrafish model of DMD
Details: Li and Arner, PLoSONE, 2015

Cc1ccc(S(=O)(=O)NCc2ccccc2)cc1 [BTS, N-benzyl-p-tolyl-sulfonamide]
protection from pathological muscle derangement: protect muscles from pathological muscle derangement
